In patent US20230372276A1, “METHODS FOR DELIVERING MEDIUM CHAIN TRIGLYCERIDES WITH CONTROLLED PHARMACOKINETIC, SAFETY AND TOLERABILITY PROFILES” (Cerecin Inc., priority 2020, published 2023):

Columns and labels:
[1] = Ethnicity analysis of total ketone exposure, Chinese vs Caucasian (Study 2 parts combined); format: in vivo, human (healthy young male Caucasian and Asian volunteers); conditions: healthy participants
Description: The present example investigates the pharmacokinetics, safety and tolerability of tricaprilin in healthy young male Caucasian and Asian volunteers to understand and elucidate any differences between the two populations and any identify any ethnic sensitivities. In this example, data from several studies were analyzed to evaluate any ethnicity differences in safety and tolerability of tricaprilin. The analyzed studies included Caucasian and Asian (Chinese) subjects and several analyses were conducted to compare the effects in Caucasians vs Asian. Ethnic Chinese participants were defined as all four grandparents being Chinese. The level of total ketones were quantitated using a validated LC-MS/MS bioanalytical assay.
Methods: Study 1 was a food effect study of a spray dried formulation of tricaprilin (AC-SD-01), conducted in healthy young males. […] Both of these studies included Caucasian and Asian (Chinese) subjects and several analyses were conducted to compare the effects in Caucasians vs Chinese. To explore whether ethnicity affects total ketone body exposure after tricaprilin administration, the pharmacokinetic parameters AUC0-t and Cmax from Study 2 were examined and grouped by an individual's ethnicity (Chinese or Caucasian).

[2] = both, human, in vivo
Description: The population for this study was 12 healthy older males and females age 50 and above.
Following a Screening period of up to 28 days, eligible subjects arrived at the clinical research unit (CRU) for Check-in on Day −1. On Day 1, subjects had predose samples of plasma serum taken for PK. […] Dose 2 was administered 30 minutes after completion of a standard lunch.
Subjects were to gradually increase the dose according to the titration scheme, aiming to reach a dose of 75 g twice a day.
On Days 15 and 21, subjects had predose and postdose (1, 1.5, and 2 hours) samples of plasma taken for PK. On Day 24, subjects had predose samples of plasma taken for PK. After the first dose on Day 24, 24-hour PK sampling was done to measure ketone body levels (βHB, AcAc). Check-out was on Day 25 following completion of scheduled assessments.
Immediately after dosing, the remaining treatment in the container was rinsed with 60 mL of water and administered to the subject for a total of approximately 300 mL of dosing liquid consumed for each dosing.
Cmax and Tmax were calculated for total ketones, βHB, and AcAc for the Day 15 and Day 21 PK sampling.
The plasma concentrations of βHB, AcAc, and total ketones were listed and summarized by study day and time point for all subjects in the PK Population. Mean and individual concentration-time profiles for Days 15, 21, and 24 were presented on linear and semi-log scales. Linear mean plots were presented with and without SD. Plasma βHB, AcAc and total ketones PK parameters were listed and summarized by study day and dose for all subjects in the PK Population. No inferential statistics were performed on the PK data.

## CCCCCCCC(=O)OCC(COC(=O)CCCCCCC)OC(=O)CCCCCCC [tricaprilin]
[1]
  Exposure to total ketones, ethnic Chinese compared to Caucasians: no different
[2]
  increase of geometric mean Cmax for AcAc: 2.3 fold
  increase of geometric mean Cmax for total ketones: 2.7 fold
  increase of geometric mean Cmax for βHB: 2.9 fold
